Laboratory results reported in US20220280462A1, “SOLID ORAL DOSAGE FORM COMPRISING NAPROXEN AND VITAMIN B1” (DSM IP ASSETS B.V., priority 2019, published 2022).
Structures can show the parent of a compound that is named as a salt.

Test: Bulk density, tapped density and Carr Index (flowability) of powders and granules
Assay type: physicochemical
Conditions: for Carr Index: 100×(1−BD/TD), greater than 25 indicates poor flowability
Protocol: The Carr Index is calculated by the formula 100×(1−BD/TD) and is used as an indication of the flowability.

Description (appearance of powder)	flowability (in words, from Carr Index)	SMILES	BD (bulk density)	TD (tapped density)	Carr Index
		Cc1ncc(CO)c(CO)c1O.Cl [Pyridoxine Hydrochloride, pyridoxine hydrochloride]	0.44 g/mL	0.62 g/mL	30
		Cc1ncc(C[n+]2csc(CCO)c2C)c(N)n1 [Thiamine hydrochloride, thiamine hydrochloride]	0.26 g/mL	0.46 g/mL	44
very lumpy	poor flowability	COc1ccc2cc([C@H](C)C(=O)O)ccc2c1 [Naproxen Sodium, naproxen sodium]			
